# Assay results from US3948928A, “3-Substituted-1,2-benzisoxazoles and pharmaceutically acceptable acid addition salts thereof” (Dainippon Pharmaceutical Co., Ltd., priority 1972, dated 1976).
# Structures can show the parent of a compound that is named as a salt.
# Columns and labels:
# [1] = tested on: hypothermy induced by reserpine; assay: Anti-reserpine activity: antagonism against the hypothermy induced by reserpine; format: in vivo, male dd YS-mice; settings: 100 mg/kg orally; for Inhibition (%): reserpine 5 mg/kg i.p. simultaneously, rectal temperature at 4 hours; for Ratio to AMT: inhibition relative to amitriptyline (AMT)
# Procedure: The anti-reserpine activity of the test compounds was studied by the antagonism against the hypothermy induced by reserpine on male dd YS-mice, weighing 18 to 20 g, each group being 5 mice. The test compounds were orally administered in a dose of 100 mg/kg and simultaneously reserpine was intraperitoneally administered in a dose of 5 mg/kg to the mice. The body temperature was measured on the rectal temperature of the mice at 4 hours after the administration of the test compounds by thermister BMG III-130, made by Shibaura Electric Co., Ltd.
# [2] = tested on: renal hypertensive rats; assay: Anti-hypertensive activity in renal hypertensive rats (plethysmographic tail blood pressure); format: in vivo, male Wistar rats
# Description: Male Wistar rats weighing 180 to 200 g and having a blood pressure of 125 to 145 mmHg were anesthetized with ether and the left abdominal wall of rats was cut and thereby the renal artery was laid bare. The origin part of the aorta was stripped off and to the renal artery was fixed a silver clip which was made by two-folding at interval of 0.2 mm a silver thin board having 2.0 mm in width, 6.0 mm in length and 0.3 mm in thickness, and then the abdominal wall was stitched. At 2 months after the operation, the blood pressure of the rats was increased to 150 or more mmHg. The rats thus treated were used in the test as the renal hypertensive rats.
# The blood pressure was measured before the administration of test compounds and at 0.5, 1, 3, 5, 7, 9 and 24 hours after the administration of the test compounds.
# [3] = tested on: spontaneously hypertensive rats; assay: Anti-hypertensive activity in spontaneously hypertensive rats; format: in vivo, male Wistar rats
# Procedure: The blood pressure was measured by plethysmographic method, in which the blood pressure was measured indirectly by using a tail of animal without anesthesia. That is, after being warmed at 38°C for 10 minutes, a tail of rat was pressed by cuff and then the pressure was relieved and thereby the blood flow started again to increase the volume of tail. The blood pressure at that time was measured.
# Spontaneously hypertensive rats were prepared by using male Wistar rats weighing 300 to 350 g and being 20 or more weeks of age. […] The blood pressure in rats was measured at 0.5, 1, 3, 5, 7, 24 and 30 hours after the administration of the test compounds in the same manner as described in Test 3, (B).
# [4] = tested on: 1-dopa potentiating activity; assay: 1-Dopa potentiating activity (mortality of mice given 1-dopa); format: in vivo, dd YS-mice; settings: one hour before 1-dopa 300 mg/kg i.p.
# Procedure: To dd YS-mice, weighing 18 to 20 g (each group being 10 mice) was intraperitoneally administered 300 mg/kg of 1-dopa: 3-(3,4-dihydroxyphenyl)-L-alanine. The mice were entered into a plastic cage having 15 × 15 cm^2 in size and allowed to live gregariously and then the symptom of the mice was observed. The test compounds were orally administered to the mice at one hour before the administration of 1-dopa. The activity of the test compounds was calculated by the mortality.
Compound,Inhibition (%) [1],Ratio to AMT [1],Blood pressure Decrease percent ([2]; 100 mg/kg p.o.),Blood pressure Duration ([2]; 100 mg/kg p.o.),Blood pressure Peak time ([2]; 100 mg/kg p.o.),other results
"NC(Cc1noc2ccccc12)=NOC(=O)c1ccccc1 [Test compound 3 (Table 1), O-Benzoyl-1,2-benzisoxazole-3-acetamidoxime]",57.1%,1.17,,,,
"Cl.NC(Cc1noc2ccccc12)=NO [Test compound 2 (Table 1), 1,2-Benzisoxazole-3-acetamidoxime hydrochloride]",64.9%,1.33,,,,
"Cl.N=C(Cc1noc2ccccc12)NN [Test compound 3 (Table 3), 1,2-Benzisoxazole-3-acetamidrazone hydrochloride]",,,19.0%,24 h,7 h,
"Cl.NC(CCc1noc2ccccc12)=NO [Test compound 6 (Table 1), 1,2-Benzisoxazole-3-propionamidoxime hydrochloride]",58.1%,1.12,,,,
"N=C(Cc1noc2ccccc12)N1CCN(c2ccccc2)CC1 [Test compound 4 (Table 3), 1-Phenyl-4-(1,2-benzisoxazole-3-acetimidoyl)piperazine hydrochloride]",,,10.7%,30 h,3 h,
"CN(C)CCC=C1c2ccccc2CCc2ccccc21 [Amitriptyline, 3-(10,11-Dihydro-5H-dibenzo[a,d]-cyclohepten-5-ylidene)-N,N-dimethylpropylamine, reference compound]",48.9%,,,,,
"Cl.NC(Cc1noc2ccc(F)cc12)=NO [Test compound 3 (Table 4), 5-Fluoro-1,2-benzisoxazole-3-acetamidoxime hydrochloride]",,,,,,Blood pressure Decrease percent ([3]; 1 mg/kg p.o.): 20%; Blood pressure Duration ([3]; 1 mg/kg p.o.): 24 h; Blood pressure Peak time ([3]; 1 mg/kg p.o.): 7 to 8 h; Blood pressure Decrease percent ([3]; 10 mg/kg p.o.): 22%; Blood pressure Duration ([3]; 10 mg/kg p.o.): 24 h; Blood pressure Peak time ([3]; 10 mg/kg p.o.): 7.0 h
"CNC(=N)Cc1noc2ccccc12 [Test compound 5 (Table 3), 1,2-Benzisoxazole-3-(N-methyl)acetamidine hydrochloride]",,,19.3%,24 h,3 h,
"Cl.Oc1ccc2c(CC3=NCCN3)noc2c1 [Test compound 7 (Table 3), 6-Hydroxy-3-(2-imidazolin-2-yl)methyl-1,2-benzisoxazole hydrochloride]",,,,,,Blood pressure Decrease percent ([3]; 10 mg/kg p.o.): 14%; Blood pressure Duration ([3]; 10 mg/kg p.o.): 9 h; Blood pressure Peak time ([3]; 10 mg/kg p.o.): 7.0 h
"Cl.Oc1ccc2onc(CC3=NCCN3)c2c1 [Test compound 6 (Table 3), 5-Hydroxy-3-(2-imidazolin-2-yl)methyl-1,2-benzisoxazole hydrochloride]",,,56.5%,30 h,5 h,
"1,2-Benzisoxazole-3-acetamidoxime [Example 1]",66.9%,1.37,,,,Number of dead mice/number of used mice ([4]; dose 20 mg/kg orally): 1/10; Number of dead mice/number of used mice ([4]; dose 50 mg/kg orally): 3/10; Number of dead mice/number of used mice ([4]; dose 100 mg/kg orally): 7/10; Blood pressure Decrease percent ([2]; 3 mg/kg p.o.): 18.2%; Blood pressure Duration ([2]; 3 mg/kg p.o.): 24 h; Blood pressure Peak time ([2]; 3 mg/kg p.o.): 7 h; Blood pressure Decrease percent ([2]; 10 mg/kg p.o.): 36.3%; Blood pressure Duration ([2]; 10 mg/kg p.o.): 30 h; Blood pressure Peak time ([2]; 10 mg/kg p.o.): 7 h; Blood pressure Decrease percent ([2]; 30 mg/kg p.o.): 38.8%; Blood pressure Duration ([2]; 30 mg/kg p.o.): 48 h; Blood pressure Peak time ([2]; 30 mg/kg p.o.): 3 h; Blood pressure Decrease percent ([3]; 10 mg/kg p.o.): 16%; Blood pressure Duration ([3]; 10 mg/kg p.o.): 24 h; Blood pressure Peak time ([3]; 10 mg/kg p.o.): 5.0 h
"COc1ccc2c(CC(N)=NO)noc2c1.Cl [Test compound 5 (Table 1), 6-Methoxy-1,2-benzisoxazole-3-acetamidoxime hydrochloride]",69.2%,1.42,,,,
"6,7-dimethoxy-1,2-benzisoxazole-3-acetamidoxime hydrochloride [Example 7]",,,21.0%,72 h,5 h,
"Cc1cccc2c(CC3=NCCN3)noc12.Cl [Test compound 4 (Table 1), 7-Methyl-3-(2-imidazolin-2-yl)methyl-1,2-benzisoxazole hydrochloride]",51.9%,1.06,,,,
"Cl.Fc1ccc2onc(CC3=NCCN3)c2c1 [Test compound 4 (Table 4), 5-Fluoro-3-(2-imidazolin-2-yl)methyl-1,2-benzisoxazole hydrochloride]",,,,,,Blood pressure Decrease percent ([3]; 10 mg/kg p.o.): 28%; Blood pressure Duration ([3]; 10 mg/kg p.o.): 30 h; Blood pressure Peak time ([3]; 10 mg/kg p.o.): 7.0 h
"NC12CC3CC(CC(C3)C1)C2 [Amantadine, 1-aminoadamantane, reference compound]",,,,,,Number of dead mice/number of used mice ([4]; dose 100 mg/kg orally): 0/10; Number of dead mice/number of used mice ([4]; dose 200 mg/kg orally): 3/10; Number of dead mice/number of used mice ([4]; dose 300 mg/kg orally): 5/10
"Cl.N=C(N)Cc1noc2ccccc12 [Test compound 2 (Table 3), 1,2-Benzisoxazole-3-acetamidine hydrochloride]",,,34.4%,30 h,1 to 3 h,
